Laboratory results published in the supplement of paper PMC10307832.

Columns and labels:
Test in all cases: relative viability (nuclei count vs DMSO), 5 days (fraction); higher = more cells survive
AZ505 + Trametinib = compound: C1CCC(CC1)N(CCNCCC2=C3C(=C(C=C2)O)NC(=O)CO3)C(=O)CCNCCC4=CC(=C(C=C4)Cl)Cl [AZ505] + CC(=O)Nc1cccc(-n2c(=O)n(C3CC3)c(=O)c3c(Nc4ccc(I)cc4F)n(C)c(=O)c(C)c32)c1 [Trametinib] (partner 0.02 µM)
Outline: (§1)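 One day after seeding in 1536-well plates, lung cancer cell lines were dosed by pin tool. Dosing was either single-drug or a fixed anchor-drug dose plus five library-drug doses (not always all listed) in √10 steps. After 5 days, nuclei were stained in one fix-and-stain step and counted on 4× images, and relative viability is the nuclei count of treated wells over that of vehicle wells, given as the median of duplicate plates.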

AZ505 + Foretinib = compound: C1CCC(CC1)N(CCNCCC2=C3C(=C(C=C2)O)NC(=O)CO3)C(=O)CCNCCC4=CC(=C(C=C4)Cl)Cl [AZ505] + COc1cc2c(Oc3ccc(NC(=O)C4(C(=O)Nc5ccc(F)cc5)CC4)cc3F)ccnc2cc1OCCCN1CCOCC1 [Foretinib] (partner 0.25 µM)
Outline: as §1

AZ505 + Navitoclax = compound: C1CCC(CC1)N(CCNCCC2=C3C(=C(C=C2)O)NC(=O)CO3)C(=O)CCNCCC4=CC(=C(C=C4)Cl)Cl [AZ505] + CC1(C)CCC(c2ccc(Cl)cc2)=C(CN2CCN(c3ccc(C(=O)NS(=O)(=O)c4ccc(N[C@H](CCN5CCOCC5)CSc5ccccc5)c(S(=O)(=O)C(F)(F)F)c4)cc3)CC2)C1 [Navitoclax] (partner 0.5 µM)
Outline: as §1

AZ505 + Tozasertib = compound: C1CCC(CC1)N(CCNCCC2=C3C(=C(C=C2)O)NC(=O)CO3)C(=O)CCNCCC4=CC(=C(C=C4)Cl)Cl [AZ505] + Cc1cc(Nc2cc(N3CCN(C)CC3)nc(Sc3ccc(NC(=O)C4CC4)cc3)n2)n[nH]1 [Tozasertib] (partner 0.1 µM)
Outline: as §1

UMC-11
relative viability (AZ505 + Trametinib; first compound 0.08 µM): 0.588 | relative viability (AZ505 + Trametinib; first compound 0.253 µM): 0.643 | relative viability (AZ505 + Trametinib; first compound 0.8 µM): 0.697 | relative viability (AZ505 + Trametinib; first compound 2.53 µM): 0.789 | relative viability (AZ505 + Trametinib; first compound 8 µM): 0.672 | relative viability (AZ505 + Foretinib; first compound 0.08 µM): 0.975 | relative viability (AZ505 + Foretinib; first compound 0.253 µM): 1.15 | relative viability (AZ505 + Foretinib; first compound 0.8 µM): 0.922 | relative viability (AZ505 + Foretinib; first compound 2.53 µM): 1.09 | relative viability (AZ505 + Foretinib; first compound 8 µM): 1.11 | relative viability (AZ505 + Navitoclax; first compound 0.08 µM): 0.26 | relative viability (AZ505 + Navitoclax; first compound 0.253 µM): 0.295 | relative viability (AZ505 + Navitoclax; first compound 0.8 µM): 0.327 | relative viability (AZ505 + Navitoclax; first compound 2.53 µM): 0.334 | relative viability (AZ505 + Navitoclax; first compound 8 µM): 0.373 | relative viability (AZ505 + Tozasertib; first compound 0.08 µM): 0.189 | relative viability (AZ505 + Tozasertib; first compound 0.253 µM): 0.206 | relative viability (AZ505 + Tozasertib; first compound 0.8 µM): 0.188 | relative viability (AZ505 + Tozasertib; first compound 2.53 µM): 0.196 | relative viability (AZ505 + Tozasertib; first compound 8 µM): 0.205
